# Measurements reported in ChEMBL document CHEMBL4038275, “t-Butyl pyridine and phenyl C-region analogues of 2-(3-fluoro-4-methylsulfonylaminophenyl)propanamides as potent TRPV1 antagonists” (Bioorg Med Chem, 2017).
# Activity calls are given as the source filed them. No cut-off for these calls is given here.
# Target: Transient receptor potential cation channel subfamily V member 1 (Homo sapiens, UniProt Q8NER1)
# Assay: Antagonist activity at human TRPV1 expressed in CHOK1 cells assessed as inhibition of capsaicin induced calcium influx pretreated for 6 mins followed by capsaicin addition by Fluo-4/Pluronic F127 probe based FLIPR method
# Format: cell-based
# Chain of Transient receptor potential cation channel subfamily V member 1 (Q8NER1 whole entry): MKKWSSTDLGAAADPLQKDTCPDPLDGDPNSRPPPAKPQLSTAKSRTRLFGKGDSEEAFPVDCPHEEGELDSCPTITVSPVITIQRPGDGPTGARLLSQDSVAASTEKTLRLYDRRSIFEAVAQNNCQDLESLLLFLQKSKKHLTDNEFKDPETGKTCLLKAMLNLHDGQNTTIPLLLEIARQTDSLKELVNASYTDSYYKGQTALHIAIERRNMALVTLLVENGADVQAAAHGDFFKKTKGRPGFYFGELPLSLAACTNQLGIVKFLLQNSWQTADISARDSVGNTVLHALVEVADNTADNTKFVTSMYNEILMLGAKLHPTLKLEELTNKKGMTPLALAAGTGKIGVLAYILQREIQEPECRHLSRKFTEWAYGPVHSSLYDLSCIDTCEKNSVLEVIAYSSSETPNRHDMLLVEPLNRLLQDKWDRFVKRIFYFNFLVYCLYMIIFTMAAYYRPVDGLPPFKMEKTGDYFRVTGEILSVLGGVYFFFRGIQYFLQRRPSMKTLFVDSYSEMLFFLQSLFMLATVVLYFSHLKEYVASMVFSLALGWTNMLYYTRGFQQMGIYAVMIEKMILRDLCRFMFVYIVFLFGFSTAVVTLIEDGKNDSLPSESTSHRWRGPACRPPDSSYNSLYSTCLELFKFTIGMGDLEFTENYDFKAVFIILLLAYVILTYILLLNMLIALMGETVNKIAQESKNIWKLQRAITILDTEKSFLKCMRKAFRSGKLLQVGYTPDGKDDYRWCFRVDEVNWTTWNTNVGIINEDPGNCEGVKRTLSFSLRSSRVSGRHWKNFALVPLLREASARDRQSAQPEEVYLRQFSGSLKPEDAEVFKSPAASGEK
row,SMILES,Ki
1,CC(C(=O)NCc1ccc(C(C)(C)C)nc1N1CCC(Cc2ccccc2)CC1)c1ccc(NS(C)(=O)=O)c(F)c1 (stereo not drawn),0.3 nM
2,C[C@H](C(=O)NCc1ccc(C(C)(C)C)cc1SC1CCCCC1)c1ccc(NS(C)(=O)=O)c(F)c1,6 nM
3,CC(C(=O)NCc1ccc(C(C)(C)C)nc1SCCCN1CCCC1)c1ccc(NS(C)(=O)=O)c(F)c1 (stereo not drawn),17.1 nM
4,CC(C(=O)NCc1ccc(C(C)(C)C)nc1SC1CCCC1)c1ccc(NS(C)(=O)=O)c(F)c1 (stereo not drawn),2.5 nM
5,CC(C(=O)NCc1ccc(C(C)(C)C)nc1C1CCCCC1)c1ccc(NS(C)(=O)=O)c(F)c1 (stereo not drawn),3.1 nM
6,CCCCCc1nc(C(C)(C)C)ccc1CNC(=O)C(C)c1ccc(NS(C)(=O)=O)c(F)c1 (stereo not drawn),1.9 nM
7,CC(C(=O)NCc1ccc(C(C)(C)C)nc1OCc1ccc(F)cc1)c1ccc(NS(C)(=O)=O)c(F)c1 (stereo not drawn),0.8 nM
8,C[C@H](C(=O)NCc1ccc(C(C)(C)C)nc1SC1CCCCC1)c1ccc(NS(C)(=O)=O)c(F)c1,3.4 nM
9,CC(C(=O)NCc1ccc(C(C)(C)C)cc1N1CCCC1)c1ccc(NS(C)(=O)=O)c(F)c1 (stereo not drawn),8.1 nM
10,CC(C(=O)NCc1ccc(C(C)(C)C)cc1C1CCCCC1)c1ccc(NS(C)(=O)=O)c(F)c1 (stereo not drawn),9.8 nM
11,C[C@@H](C(=O)NCc1ccc(C(C)(C)C)nc1SC1CCCCC1)c1ccc(NS(C)(=O)=O)c(F)c1,36.4 nM
12,CCCCCCSc1nc(C(C)(C)C)ccc1CNC(=O)C(C)c1ccc(NS(C)(=O)=O)c(F)c1 (stereo not drawn),1.5 nM
13,CCCCCc1cc(C(C)(C)C)ccc1CNC(=O)C(C)c1ccc(NS(C)(=O)=O)c(F)c1 (stereo not drawn),2.8 nM
14,CCCCSc1nc(C(C)(C)C)ccc1CNC(=O)C(C)c1ccc(NS(C)(=O)=O)c(F)c1 (stereo not drawn),3.2 nM
15,CC(C(=O)NCc1ccc(C(C)(C)C)cc1N1CCCCCC1)c1ccc(NS(C)(=O)=O)c(F)c1 (stereo not drawn),6.2 nM
16,CC(C(=O)NCc1ccc(C(C)(C)C)cc1OCc1ccccc1)c1ccc(NS(C)(=O)=O)c(F)c1 (stereo not drawn),2.9 nM
17,COc1cccc(COc2nc(C(C)(C)C)ccc2CNC(=O)C(C)c2ccc(NS(C)(=O)=O)c(F)c2)c1 (stereo not drawn),6 nM
18,CCCCCCOc1cc(C(C)(C)C)ccc1CNC(=O)C(C)c1ccc(NS(C)(=O)=O)c(F)c1 (stereo not drawn),0.5 nM
19,CCCCN(C)c1nc(C(C)(C)C)ccc1CNC(=O)C(C)c1ccc(NS(C)(=O)=O)c(F)c1 (stereo not drawn),1.2 nM
20,CC(C(=O)NCc1ccc(C(C)(C)C)nc1SC1CCCCC1)c1ccc(NS(C)(=O)=O)c(F)c1 (stereo not drawn),8.5 nM
21,CC(C(=O)NCc1ccc(C(C)(C)C)cc1SC1CCCCC1)c1ccc(NS(C)(=O)=O)c(F)c1 (stereo not drawn),7.4 nM

row,SMILES,Ki
1,CC(C(=O)NCc1ccc(C(C)(C)C)cc1N1CCN(c2ccccc2)CC1)c1ccc(NS(C)(=O)=O)c(F)c1 (stereo not drawn),0.8 nM
2,CCCCSc1cc(C(C)(C)C)ccc1CNC(=O)C(C)c1ccc(NS(C)(=O)=O)c(F)c1 (stereo not drawn),6.7 nM
3,CCCOc1cc(C(C)(C)C)ccc1CNC(=O)C(C)c1ccc(NS(C)(=O)=O)c(F)c1 (stereo not drawn),4.4 nM
4,CC(C(=O)NCc1ccc(C(C)(C)C)nc1SCc1ccc(Cl)cc1)c1ccc(NS(C)(=O)=O)c(F)c1 (stereo not drawn),3.4 nM
5,CC(C(=O)NCc1ccc(C(C)(C)C)nc1-c1ccc(F)cc1)c1ccc(NS(C)(=O)=O)c(F)c1 (stereo not drawn),0.3 nM
6,CC(C(=O)NCc1ccc(C(C)(C)C)nc1SCc1ccccc1Cl)c1ccc(NS(C)(=O)=O)c(F)c1 (stereo not drawn),3.8 nM
7,COc1ccc(CSc2nc(C(C)(C)C)ccc2CNC(=O)C(C)c2ccc(NS(C)(=O)=O)c(F)c2)cc1 (stereo not drawn),3.5 nM
8,CCC1CCN(c2nc(C(C)(C)C)ccc2CNC(=O)C(C)c2ccc(NS(C)(=O)=O)c(F)c2)CC1 (stereo not drawn),0.1 nM
9,CC1CCN(c2cc(C(C)(C)C)ccc2CNC(=O)C(C)c2ccc(NS(C)(=O)=O)c(F)c2)CC1 (stereo not drawn),0.7 nM
10,CC(C(=O)NCc1ccc(C(C)(C)C)nc1N1CCCCC1)c1ccc(NS(C)(=O)=O)c(F)c1 (stereo not drawn),1.1 nM
11,CC(C(=O)NCc1ccc(C(C)(C)C)nc1SCCCN1CCOCC1)c1ccc(NS(C)(=O)=O)c(F)c1 (stereo not drawn),112 nM
12,CC(C(=O)NCc1ccc(C(C)(C)C)cc1N1CCCCC1)c1ccc(NS(C)(=O)=O)c(F)c1 (stereo not drawn),1.9 nM
13,CC(C)CCSc1nc(C(C)(C)C)ccc1CNC(=O)C(C)c1ccc(NS(C)(=O)=O)c(F)c1 (stereo not drawn),5.9 nM
14,CC(C(=O)NCc1ccc(C(C)(C)C)cc1OCc1ccc(F)cc1)c1ccc(NS(C)(=O)=O)c(F)c1 (stereo not drawn),3.8 nM
15,CC(C(=O)NCc1ccc(C(C)(C)C)nc1SCCCN(C)C)c1ccc(NS(C)(=O)=O)c(F)c1 (stereo not drawn),51.8 nM
16,CCCCCSc1nc(C(C)(C)C)ccc1CNC(=O)C(C)c1ccc(NS(C)(=O)=O)c(F)c1 (stereo not drawn),3.1 nM
17,CC(C(=O)NCc1ccc(C(C)(C)C)nc1SCc1ccccc1)c1ccc(NS(C)(=O)=O)c(F)c1 (stereo not drawn),4 nM
18,CCCCN(C)c1cc(C(C)(C)C)ccc1CNC(=O)C(C)c1ccc(NS(C)(=O)=O)c(F)c1 (stereo not drawn),1 nM
19,C[C@@H](C(=O)NCc1ccc(C(C)(C)C)cc1SC1CCCCC1)c1ccc(NS(C)(=O)=O)c(F)c1,89.2 nM
20,CC(C(=O)NCc1ccc(C(C)(C)C)nc1SCC(F)(F)F)c1ccc(NS(C)(=O)=O)c(F)c1 (stereo not drawn),4.1 nM
21,CC(C)CCOc1cc(C(C)(C)C)ccc1CNC(=O)C(C)c1ccc(NS(C)(=O)=O)c(F)c1 (stereo not drawn),0.6 nM

# Test system: Mus musculus
# Assay: Analgesic activity in po dosed Bennett mouse model of neuropathic pain assessed as reduction in chronic constriction injury-induced cold allodynia
# Format: functional, organism-based
row,SMILES,Activity
1,C[C@H](C(=O)NCc1ccc(C(C)(C)C)cc1SC1CCCCC1)c1ccc(NS(C)(=O)=O)c(F)c1,Dose-dependent effect

# Test system: Mus musculus
# Assay: Analgesic activity in Bennett mouse model of neuropathic pain assessed as reduction in chronic constriction injury-induced cold allodynia at 10 mg/kg, po relative to control
# Format: functional
SMILES,MPE,Activity
C[C@H](C(=O)NCc1ccc(C(C)(C)C)cc1SC1CCCCC1)c1ccc(NS(C)(=O)=O)c(F)c1,83%,
C[C@H](C(=O)NCc1ccc(C(C)(C)C)nc1SC1CCCCC1)c1ccc(NS(C)(=O)=O)c(F)c1,,Active

# Test system: Mus musculus
# Assay: Analgesic activity in Bennett mouse model of neuropathic pain assessed as reduction in chronic constriction injury-induced cold allodynia at 3 mg/kg, po relative to control
# Format: functional
row,SMILES,MPE
1,C[C@H](C(=O)NCc1ccc(C(C)(C)C)nc1SC1CCCCC1)c1ccc(NS(C)(=O)=O)c(F)c1,50%

# Test system: Mus musculus
# Assay: Analgesic activity in mouse assessed as reduction in capsaicin induced hypothermia at 3 mg/kg, po relative to control
# Format: functional
row,SMILES,MPE
1,C[C@H](C(=O)NCc1ccc(C(C)(C)C)nc1SC1CCCCC1)c1ccc(NS(C)(=O)=O)c(F)c1,46%

# Test system: Mus musculus
# Assay: Analgesic activity in mouse assessed as reduction in capsaicin induced hypothermia at 10 mg/kg, po relative to control
# Format: functional
row,SMILES,MPE
1,C[C@H](C(=O)NCc1ccc(C(C)(C)C)nc1SC1CCCCC1)c1ccc(NS(C)(=O)=O)c(F)c1,15%
